US20230092890A1, “1, 3, 4-Oxadiazole derivative compounds as histone deacetylase 6 inhibitor, and the pharmaceutical composition comprising the same” (Chong Kun Dang Pharmaceutical Corp., priority 2019, published 2023)

Key:
HDAC6 human recombinant = target: T1, HDAC6 human recombinant (Homo sapiens, UniProt Q9UBN7); test: HDAC enzyme activity inhibition (in vitro), HDAC6 assay; format: biochemical; details: samples at 0.1, 1, 10, 100 and 1000 nM; 37° C. 60 minutes; fluorescence Ex 390, Em 460; read-out: HDAC6 IC50
T1 construct: purchased Calbiochem 382180
T1 sequence (Q9UBN7 1-1215): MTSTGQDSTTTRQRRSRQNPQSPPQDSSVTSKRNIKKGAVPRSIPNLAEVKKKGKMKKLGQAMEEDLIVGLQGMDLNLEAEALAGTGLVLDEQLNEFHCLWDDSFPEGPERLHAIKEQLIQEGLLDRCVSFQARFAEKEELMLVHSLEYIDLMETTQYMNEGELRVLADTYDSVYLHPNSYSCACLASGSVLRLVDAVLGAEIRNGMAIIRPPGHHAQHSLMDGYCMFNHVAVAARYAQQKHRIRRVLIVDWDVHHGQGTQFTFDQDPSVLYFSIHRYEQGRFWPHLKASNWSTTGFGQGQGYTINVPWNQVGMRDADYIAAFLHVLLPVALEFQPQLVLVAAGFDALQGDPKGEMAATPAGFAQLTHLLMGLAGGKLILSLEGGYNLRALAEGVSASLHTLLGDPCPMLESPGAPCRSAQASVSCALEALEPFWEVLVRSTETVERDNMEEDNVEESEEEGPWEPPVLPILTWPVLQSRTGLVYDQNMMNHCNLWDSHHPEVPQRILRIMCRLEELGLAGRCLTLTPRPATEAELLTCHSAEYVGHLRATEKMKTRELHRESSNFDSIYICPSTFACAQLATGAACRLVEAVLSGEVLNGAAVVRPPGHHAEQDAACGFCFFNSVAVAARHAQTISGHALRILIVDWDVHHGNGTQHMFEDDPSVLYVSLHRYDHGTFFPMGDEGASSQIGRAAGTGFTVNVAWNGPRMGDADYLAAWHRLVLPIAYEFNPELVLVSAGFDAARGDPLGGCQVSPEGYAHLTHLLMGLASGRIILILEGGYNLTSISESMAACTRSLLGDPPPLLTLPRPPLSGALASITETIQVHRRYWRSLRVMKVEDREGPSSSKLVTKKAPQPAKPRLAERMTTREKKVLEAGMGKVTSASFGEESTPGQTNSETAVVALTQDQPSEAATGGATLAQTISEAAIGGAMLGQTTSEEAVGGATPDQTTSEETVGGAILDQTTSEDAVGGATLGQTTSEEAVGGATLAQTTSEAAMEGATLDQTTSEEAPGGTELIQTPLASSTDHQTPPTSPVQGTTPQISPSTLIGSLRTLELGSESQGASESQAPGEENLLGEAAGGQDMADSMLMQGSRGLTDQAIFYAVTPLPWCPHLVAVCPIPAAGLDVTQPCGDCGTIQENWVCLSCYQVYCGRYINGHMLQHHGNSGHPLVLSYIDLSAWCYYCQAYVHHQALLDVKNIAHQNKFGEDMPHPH
Outline: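 Fluorescence (Ex 390, Em 460) read after a 37° C, 60 min enzyme reaction and a further 30 min developer step at 37° C. Uses recombinant human HDAC6; HDAC1 arm dosed at 100, 1000, 10000 nM.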

HDAC1 = target: T2, HDAC1 (Homo sapiens, UniProt Q13547); test: HDAC enzyme activity inhibition (in vitro), HDAC1 Fluorimetric Drug Discovery Assay Kit; format: biochemical; details: samples at 100, 1000 and 10000 nM; 37° C. 60 minutes; fluorescence Ex 390, Em 460; read-out: HDAC1 IC50
T2 construct: purchased Enzolifesciences BML-AK511
T2 sequence (Q13547 whole entry): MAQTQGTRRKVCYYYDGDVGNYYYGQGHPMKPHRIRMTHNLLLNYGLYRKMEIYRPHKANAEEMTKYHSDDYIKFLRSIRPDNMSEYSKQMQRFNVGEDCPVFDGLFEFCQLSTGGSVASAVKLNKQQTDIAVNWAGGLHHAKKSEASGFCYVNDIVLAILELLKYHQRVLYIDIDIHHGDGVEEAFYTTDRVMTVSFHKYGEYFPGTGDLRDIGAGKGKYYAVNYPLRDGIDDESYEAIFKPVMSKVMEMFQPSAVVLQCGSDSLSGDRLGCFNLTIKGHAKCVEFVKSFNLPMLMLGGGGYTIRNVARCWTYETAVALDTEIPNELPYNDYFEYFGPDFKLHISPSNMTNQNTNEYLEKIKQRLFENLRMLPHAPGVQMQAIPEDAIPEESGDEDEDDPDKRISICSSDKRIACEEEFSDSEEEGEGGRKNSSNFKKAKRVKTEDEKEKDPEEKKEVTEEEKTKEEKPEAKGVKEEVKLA
Outline: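 Each sample reacted with enzyme for 60 min at 37° C before a 30-min developer step at the same temperature. HDAC1 doses spanned 100 to 10000 nM. Fluorescent signal was read at Ex 390/Em 460.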

SMILES	IC50 (HDAC6 human recombinant) [nM]	IC50 (HDAC1) [µM]
CS(=O)(=O)N1CCC(n2c(=O)n(Cc3ccc(-c4nnc(C(F)F)o4)cn3)c3c(F)cccc32)CC1 [Compound 191, 3-((5-(5-(difluoromethyl)-1,3,4-oxadiazole-2-yl)pyridine-2-yl)methyl)-4-fluoro-1-(1-(methylsulfonyl)piperidine-4-yl)-1,3-dihydro-2H-benzo[d]imidazole-2-one]	37	> 10
CN1CC(N2Cc3ccccc3N(Cc3ccc(-c4nnc(C(F)F)o4)cc3F)C2=O)C1 [Compound 32, 1-(4-(5-(difluoromethyl)-1,3,4-oxadiazole-2-yl)-2-fluorobenzyl)-3-(1-methylazetidine-3-yl)-3,4-dihydroquinazoline-2(1H)-one]	228	> 10
CN1CCC(n2c(=O)n(Cc3ccc(-c4nnc(C(F)F)o4)cn3)c3ccc(Cl)cc32)CC1 [Compound 97, 5-chloro-1-((5-(5-(difluoromethyl)-1,3,4-oxadiazole-2-yl)pyridine-2-yl)methyl)-3-(1-methylpiperidine-4-yl)-1,3-dihydro-2H-benzo[d]imidazole-2-one]	32	> 10
O=c1n(Cc2ccc(-c3nnc(C(F)F)o3)cn2)c2cc(F)c(-c3ccncc3)cc2n1[C@@H]1CCCN(C2COC2)C1 [Compound 294, (R)-1-((5-(5-(difluoromethyl)-1,3,4-oxadiazole-2-yl)pyridine-2-yl)methyl)-6-fluoro-3-(1-(oxetan-3-yl)piperidine-3-yl)-5-(pyridine-4-yl)-1,3-dihydro-2H-benzo[d]imidazole-2-one]	11	> 10
CC(=O)N1CCC(n2c(=O)n(Cc3ccc(-c4nnc(C(F)F)o4)cc3F)c3cc(F)c(F)cc32)CC1 [Compound 174, 1-(1-acetylpiperidine-4-yl)-3-(4-(5-(difluoromethyl)-1,3,4-oxadiazole-2-yl)-2-fluorobenzyl)-5,6-difluoro-1,3-dihydro-2H-benzo[d]imidazole-2-one]	50	> 10
O=c1oc2cc(-c3cccnc3)c(F)cc2n1Cc1ccc(-c2nnc(C(F)F)o2)cn1 [Compound 277, 3-((5-(5-(difluoromethyl)-1,3,4-oxadiazole-2-yl)pyridine-2-yl)methyl)-5-fluoro-6-(pyridine-3-yl)benzo[d]oxazole-2(3H)-one]	21	> 10
O=c1n(Cc2ccc(-c3nnc(C(F)F)o3)cn2)c2ccccc2n1C1CCN(C2COC2)CC1 [Compound 78, 1-((5-(5-(difluoromethyl)-1,3,4-oxadiazole-2-yl)pyridine-2-yl)methyl)-3-(1-(oxetan-3-yl)piperidine-4-yl)-1,3-dihydro-2H-benzo[d]imidazole-2-one]	79	> 10
O=c1n(Cc2ccc(-c3nnc(C(F)F)o3)cn2)c2cc(F)c(N3CCN(CC(F)(F)F)CC3)cc2n1C1COC1 [Compound 325]	70	> 10
CC(C)(C)OC(=O)N1CCC(n2cc(-c3cc4oc(=O)n(Cc5ccc(-c6nnc(C(F)F)o6)cn5)c4cc3F)cn2)CC1 [Compound 358, tert-butyl 4-(4-(3-((5-(5-(difluoromethyl)-1,3,4-oxadiazole-2-yl)pyridine-2-yl)methyl)-5-fluoro-2-oxo-2,3-dihydrobenzo[d]oxazole-6-yl)-1H-pyrazole-1-yl)piperidine-1-carboxylate]	130	> 10
CN1CCC(n2c(=O)n(Cc3ccc(-c4nnc(C(F)F)o4)cn3)c3ccc(C4CCN(S(C)(=O)=O)CC4)cc32)CC1 [Compound 198, 1-((5-(5-(difluoromethyl)-1,3,4-oxadiazole-2-yl)pyridine-2-yl)methyl)-3-(1-methylpiperidine-4-yl)-5-(1-(methylsulfonyl)piperidine-4-yl)-1,3-dihydro-2H-benzo[d]imidazole-2-one]	195	> 10
O=c1n(Cc2ccc(-c3nnc(C(F)F)o3)cc2F)c2ccccc2n1C1CCN(Cc2cccc3cc[nH]c23)CC1 [Compound 19, 1-(1-((1H-indole-7-yl)methyl)piperidine-4-yl)-3-(4-(5-(difluoromethyl)-1,3,4-oxadiazole-2-yl)-2-fluorobenzyl)-1,3-dihydro-2H-benzo[d]imidazole-2-one]	2420	> 10
Cn1c(=O)n(Cc2ccc(-c3nnc(C(F)F)o3)cn2)c2ccc(-c3ccsc3)cc21 [Compound 219, 1-((5-(5-(difluoromethyl)-1,3,4-oxadiazole-2-yl)pyridine-2-yl)methyl)-3-methyl-5-(thiophene-3-yl)-1,3-dihydro-2H-benzo[d]imidazole-2-one]	33	> 10
Cn1c(=O)n(Cc2ccc(-c3nnc(C(F)F)o3)cc2)c2cc(F)ccc21 [Compound 144, 3-(4-(5-(difluoromethyl)-1,3,4-oxadiazole-2-yl)benzyl)-5-fluoro-1-methyl-1,3-dihydro-2H-benzo[d]imidazole-2-one]	77	> 10
O=C(c1ccncc1)N1CCC(n2c(=O)n(Cc3ccc(-c4nnc(C(F)F)o4)cn3)c3cc(F)ccc32)CC1 [Compound 63, 3-((5-(5-(difluoromethyl)-1,3,4-oxadiazole-2-yl)pyridine-2-yl)methyl)-5-fluoro-1-(1-isonicotinoylpiperidine-4-yl)-1,3-dihydro-2H-benzo[d]imidazole-2-one]	57	> 10
CS(=O)(=O)N1CCC(n2c(=O)n(Cc3ccc(-c4nnc(C(F)F)o4)cn3)c3ccccc32)CC1 [Compound 206, 1-((5-(5-(difluoromethyl)-1,3,4-oxadiazole-2-yl)pyridine-2-yl)methyl)-3-(1-(methylsulfonyl)piperidine-4-yl)-1,3-dihydro-2H-benzo[d]imidazole-2-one]	58	> 10
CC(C)N1CCC(c2ccc3c(c2)oc(=O)n3Cc2ccc(-c3nnc(C(F)F)o3)cn2)CC1 [Compound 313, 3-((5-(5-(difluoromethyl)-1,3,4-oxadiazole-2-yl)pyridine-2-yl)methyl)-6-(1-isopropylpiperidine-4-yl)benzo[d]oxazole-2(3H)-one]	165	> 10
Cc1ccc(-c2ccc3c(c2)n(Cc2ccc(-c4nnc(C(F)F)o4)cn2)c(=O)n3C2CCN(C)CC2)o1 [Compound 146, 3-((5-(5-(difluoromethyl)-1,3,4-oxadiazole-2-yl)pyridine-2-yl)methyl)-5-(5-methylfuran-2-yl)-1-(1-methylpiperidine-4-yl)-1,3-dihydro-2H-benzo[d]imidazole-2-one]	130	> 10
O=c1n(Cc2ccc(-c3nnc(C(F)F)o3)cc2F)c2ccccc2n1C1CCS(=O)(=O)CC1 [Compound 35, 1-(4-(5-(difluoromethyl)-1,3,4-oxadiazole-2-yl)-2-fluorobenzyl)-3-(1,1-dioxydotetrahydro-2H-thiopyran-4-yl)-1,3-dihydro-2H-benzo[d]imidazole-2-one]	203	> 10
O=c1oc2cc(-c3cccc4[nH]ccc34)c(F)cc2n1Cc1ccc(-c2nnc(C(F)F)o2)cn1 [Compound 279, 3-((5-(5-(difluoromethyl)-1,3,4-oxadiazole-2-yl)pyridine-2-yl)methyl)-5-fluoro-6-(1H-indole-4-yl)benzo[d]oxazole-2(3H)-one]	15	> 10
O=c1n(Cc2ccc(-c3nnc(C(F)F)o3)cc2F)c2ccccc2n1C1CC2(COC2)C1 [Compound 27, 1-(4-(5-(difluoromethyl)-1,3,4-oxadiazole-2-yl)-2-fluorobenzyl)-3-(2-oxaspiro[3.3]heptane-6-yl)-1,3-dihydro-2H-benzo[d]imidazole-2-one]	110	> 10
